Data: ChEMBL document CHEMBL5131499, “Design, synthesis and glycosidase inhibition of C-4 branched LAB and DAB derivatives” (Eur J Med Chem, 2022)

Test system: Penicillium decumbens
Test: Inhibition of Penicillium decumbens alpha-L-rhamnosidase assessed as release of p-nitrophenol at 1000 uM using p-nitrophenyl glycoside as substrate by spectrometric assay relative to control

SMILES	inhibition [%]
Cc1ccc([C@@]2(CO)NC[C@H](O)[C@H]2O)cc1	7.4
CCCCCCCCC[C@]1(CO)NC[C@@H](O)[C@@H]1O	0
CCCC[C@]1(CO)NC[C@@H](O)[C@@H]1O	11.3

Target: not listed separately
Test: Inhibition of rice alpha-glucosidase assessed as release of p-nitrophenol using p-nitrophenyl glycoside as substrate by spectrometric assay
Parameters: species or system Oryza sativa

SMILES	IC50 [µM]
Cc1ccc([C@@]2(CO)NC[C@H](O)[C@H]2O)cc1	697
CCCCCCCCC[C@]1(CO)NC[C@@H](O)[C@@H]1O	727
CCCC[C@]1(CO)NC[C@@H](O)[C@@H]1O	59

Target: not listed separately
Test: Inhibition of bovine liver beta-galactosidase assessed as release of p-nitrophenol using p-nitrophenyl glycoside as substrate by spectrometric assay
Parameters: species or system Bos taurus

SMILES	IC50 [µM]
CCCCCCCCC[C@]1(CO)NC[C@@H](O)[C@@H]1O	477

Organism: Bos taurus
Test: Inhibition of bovine liver beta-galactosidase assessed as release of p-nitrophenol at 1000 uM using p-nitrophenyl glycoside as substrate by spectrometric assay relative to control

SMILES	inhibition [%]
Cc1ccc([C@@]2(CO)NC[C@H](O)[C@H]2O)cc1	22.6
CCCC[C@]1(CO)NC[C@@H](O)[C@@H]1O	36.9

Target: Sucrase-isomaltase, intestinal (Rattus norvegicus, UniProt P23739)
Test: Inhibition of rat intestinal sucrase assessed as release of p-nitrophenol using p-nitrophenyl glycoside as substrate by spectrometric assay

Sequence of Sucrase-isomaltase, intestinal (P23739 1-1013 limits assumed): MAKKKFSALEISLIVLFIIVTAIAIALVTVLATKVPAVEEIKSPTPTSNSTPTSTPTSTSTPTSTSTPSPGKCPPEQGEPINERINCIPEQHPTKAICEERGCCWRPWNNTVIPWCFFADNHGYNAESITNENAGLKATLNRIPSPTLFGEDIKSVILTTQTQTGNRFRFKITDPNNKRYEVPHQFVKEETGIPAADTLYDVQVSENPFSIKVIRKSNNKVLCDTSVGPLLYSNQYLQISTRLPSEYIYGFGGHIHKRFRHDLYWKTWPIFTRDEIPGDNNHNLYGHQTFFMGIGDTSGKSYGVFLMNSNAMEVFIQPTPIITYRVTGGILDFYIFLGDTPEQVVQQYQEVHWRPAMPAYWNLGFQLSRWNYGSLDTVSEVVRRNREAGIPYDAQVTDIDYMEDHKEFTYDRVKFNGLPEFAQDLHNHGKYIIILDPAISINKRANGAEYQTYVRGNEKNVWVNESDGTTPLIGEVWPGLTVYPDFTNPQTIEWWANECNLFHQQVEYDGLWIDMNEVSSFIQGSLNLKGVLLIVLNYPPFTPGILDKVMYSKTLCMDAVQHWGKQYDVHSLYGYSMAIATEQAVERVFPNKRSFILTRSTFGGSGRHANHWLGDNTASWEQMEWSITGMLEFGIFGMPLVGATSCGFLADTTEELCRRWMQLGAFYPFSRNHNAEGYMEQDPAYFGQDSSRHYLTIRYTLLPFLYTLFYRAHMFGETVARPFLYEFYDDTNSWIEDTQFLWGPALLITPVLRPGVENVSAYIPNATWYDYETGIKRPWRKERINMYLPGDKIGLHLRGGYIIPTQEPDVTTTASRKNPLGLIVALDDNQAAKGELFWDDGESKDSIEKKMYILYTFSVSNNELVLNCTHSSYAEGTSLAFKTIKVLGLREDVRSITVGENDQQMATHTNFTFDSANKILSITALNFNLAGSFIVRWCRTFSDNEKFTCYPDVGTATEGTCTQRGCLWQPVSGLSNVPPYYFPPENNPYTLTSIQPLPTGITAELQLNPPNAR
Sequence of Sucrase-isomaltase, intestinal (P23739 1014-1841 limits assumed): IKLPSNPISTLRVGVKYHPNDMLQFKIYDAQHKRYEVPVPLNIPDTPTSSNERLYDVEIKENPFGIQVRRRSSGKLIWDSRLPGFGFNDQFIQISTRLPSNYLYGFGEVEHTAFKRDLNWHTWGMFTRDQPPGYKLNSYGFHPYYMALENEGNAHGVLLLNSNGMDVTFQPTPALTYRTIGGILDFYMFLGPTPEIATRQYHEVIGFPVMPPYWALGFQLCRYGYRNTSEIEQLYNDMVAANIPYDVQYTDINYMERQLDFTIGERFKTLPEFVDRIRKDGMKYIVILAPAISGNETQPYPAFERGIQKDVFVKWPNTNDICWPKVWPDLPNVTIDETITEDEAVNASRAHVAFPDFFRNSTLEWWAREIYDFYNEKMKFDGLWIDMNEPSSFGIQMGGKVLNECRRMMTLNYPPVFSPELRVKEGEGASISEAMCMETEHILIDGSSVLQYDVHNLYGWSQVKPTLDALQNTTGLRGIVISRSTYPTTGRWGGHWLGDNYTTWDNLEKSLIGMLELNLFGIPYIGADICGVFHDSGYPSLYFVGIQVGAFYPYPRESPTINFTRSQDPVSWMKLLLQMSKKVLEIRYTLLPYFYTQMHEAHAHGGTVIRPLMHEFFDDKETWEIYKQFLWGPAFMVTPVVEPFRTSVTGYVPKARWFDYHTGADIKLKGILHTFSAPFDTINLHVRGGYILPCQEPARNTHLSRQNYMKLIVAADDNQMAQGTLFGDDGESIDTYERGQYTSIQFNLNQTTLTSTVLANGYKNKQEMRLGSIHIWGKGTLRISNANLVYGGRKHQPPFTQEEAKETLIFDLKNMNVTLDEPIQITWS

SMILES	IC50 [µM]
Cc1ccc([C@@]2(CO)NC[C@H](O)[C@H]2O)cc1	1
CCCCCCCCC[C@]1(CO)NC[C@@H](O)[C@@H]1O	455
CCCC[C@]1(CO)NC[C@@H](O)[C@@H]1O	2.3

Test system: Escherichia coli
Test: Inhibition of Escherichia coli beta-glucuronidase assessed as release of p-nitrophenol at 1000 uM using p-nitrophenyl glycoside as substrate by spectrometric assay relative to control

SMILES	inhibition [%]
Cc1ccc([C@@]2(CO)NC[C@H](O)[C@H]2O)cc1	0
CCCCCCCCC[C@]1(CO)NC[C@@H](O)[C@@H]1O	31.6

Organism: Rattus norvegicus
Test: Inhibition of rat intestinal alpha-trehalase assessed as release of p-nitrophenol at 1000 uM using p-nitrophenyl glycoside as substrate by spectrometric assay relative to control

SMILES	inhibition [%]
Cc1ccc([C@@]2(CO)NC[C@H](O)[C@H]2O)cc1	12.9

Test system: not listed separately
Test: Inhibition of Escherichia coli beta-glucuronidase assessed as release of p-nitrophenol using p-nitrophenyl glycoside as substrate by spectrometric assay

SMILES	IC50 [µM]
CCCC[C@]1(CO)NC[C@@H](O)[C@@H]1O	774

Target: T1, Alpha-mannosidase (Canavalia ensiformis) (UniProt C0HJB3)
T1 sequence (whole entry): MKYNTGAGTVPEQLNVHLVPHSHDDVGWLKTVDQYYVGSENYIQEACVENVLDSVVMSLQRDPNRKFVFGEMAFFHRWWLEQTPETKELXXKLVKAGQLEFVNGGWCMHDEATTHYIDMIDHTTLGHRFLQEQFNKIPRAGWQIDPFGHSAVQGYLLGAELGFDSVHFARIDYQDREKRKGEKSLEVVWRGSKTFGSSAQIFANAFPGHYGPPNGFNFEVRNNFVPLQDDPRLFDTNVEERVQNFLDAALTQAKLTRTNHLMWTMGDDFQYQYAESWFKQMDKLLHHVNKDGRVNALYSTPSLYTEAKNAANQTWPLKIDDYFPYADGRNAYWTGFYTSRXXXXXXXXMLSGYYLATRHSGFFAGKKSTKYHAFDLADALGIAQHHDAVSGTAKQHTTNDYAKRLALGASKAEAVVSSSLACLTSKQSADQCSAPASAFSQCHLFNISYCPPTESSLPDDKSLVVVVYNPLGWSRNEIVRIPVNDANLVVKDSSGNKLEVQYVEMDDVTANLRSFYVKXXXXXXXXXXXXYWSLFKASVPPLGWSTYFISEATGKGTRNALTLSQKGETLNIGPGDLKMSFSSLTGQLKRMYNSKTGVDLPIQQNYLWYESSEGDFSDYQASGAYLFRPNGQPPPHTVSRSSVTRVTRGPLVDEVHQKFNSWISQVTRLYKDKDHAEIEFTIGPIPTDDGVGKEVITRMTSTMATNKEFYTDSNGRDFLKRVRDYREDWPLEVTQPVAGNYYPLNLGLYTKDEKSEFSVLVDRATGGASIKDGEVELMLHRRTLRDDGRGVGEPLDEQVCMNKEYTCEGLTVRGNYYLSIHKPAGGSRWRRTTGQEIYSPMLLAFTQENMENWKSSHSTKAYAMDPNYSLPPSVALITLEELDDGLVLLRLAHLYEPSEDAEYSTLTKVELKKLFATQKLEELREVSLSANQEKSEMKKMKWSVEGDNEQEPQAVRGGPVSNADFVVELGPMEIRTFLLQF
Test: Inhibition of jack bean alpha-mannosidase assessed as release of p-nitrophenol at 1000 uM using p-nitrophenyl glycoside as substrate by spectrometric assay relative to control

SMILES	inhibition [%]
Cc1ccc([C@@]2(CO)NC[C@H](O)[C@H]2O)cc1	0
CCCCCCCCC[C@]1(CO)NC[C@@H](O)[C@@H]1O	0
CCCC[C@]1(CO)NC[C@@H](O)[C@@H]1O	1.9

Organism: Sus scrofa
Test: Inhibition of porcine kidney alpha-trehalase assessed as release of p-nitrophenol at 1000 uM using p-nitrophenyl glycoside as substrate by spectrometric assay relative to control

SMILES	inhibition [%]
Cc1ccc([C@@]2(CO)NC[C@H](O)[C@H]2O)cc1	0
CCCCCCCCC[C@]1(CO)NC[C@@H](O)[C@@H]1O	6.4
CCCC[C@]1(CO)NC[C@@H](O)[C@@H]1O	2.4

Target: T2, Tissue alpha-L-fucosidase (Bos taurus) (UniProt Q2KIM0)
T2 sequence (whole entry): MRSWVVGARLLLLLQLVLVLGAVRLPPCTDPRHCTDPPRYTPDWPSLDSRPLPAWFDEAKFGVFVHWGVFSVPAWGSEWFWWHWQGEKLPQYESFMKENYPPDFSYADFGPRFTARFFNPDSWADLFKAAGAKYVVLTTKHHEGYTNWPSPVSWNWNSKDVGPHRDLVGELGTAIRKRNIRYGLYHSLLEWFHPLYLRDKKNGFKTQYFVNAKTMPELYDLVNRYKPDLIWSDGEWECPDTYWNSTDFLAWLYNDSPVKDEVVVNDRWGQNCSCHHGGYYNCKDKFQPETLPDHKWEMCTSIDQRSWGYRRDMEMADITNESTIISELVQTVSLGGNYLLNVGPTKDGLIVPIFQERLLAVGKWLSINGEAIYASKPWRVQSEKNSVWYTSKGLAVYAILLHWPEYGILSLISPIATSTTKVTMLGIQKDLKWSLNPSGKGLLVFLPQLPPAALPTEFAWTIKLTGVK
Test: Inhibition of bovine kidney alpha-L-fucosidase assessed as release of p-nitrophenol at 1000 uM using p-nitrophenyl glycoside as substrate by spectrometric assay relative to control

SMILES	inhibition [%]
Cc1ccc([C@@]2(CO)NC[C@H](O)[C@H]2O)cc1	3.3
CCCCCCCCC[C@]1(CO)NC[C@@H](O)[C@@H]1O	0
CCCC[C@]1(CO)NC[C@@H](O)[C@@H]1O	20.8

Target: T3, Lysosomal alpha-glucosidase (Homo sapiens, UniProt P10253)
Test: Inhibition of human lysosomal alpha glucosidase assessed as release of p-nitrophenol at 1000 uM using p-nitrophenyl glycoside as substrate by spectrometric assay relative to control

SMILES	inhibition [%]
Cc1ccc([C@@]2(CO)NC[C@H](O)[C@H]2O)cc1	45.9

Target: Alpha-galactosidase (Coffea arabica) (UniProt Q42656)
Test: Inhibition of coffee beans alpha-galactosidase assessed as release of p-nitrophenol at 1000 uM using p-nitrophenyl glycoside as substrate by spectrometric assay relative to control

Sequence of Alpha-galactosidase (Coffea arabica) (Q42656 16-378 limits assumed): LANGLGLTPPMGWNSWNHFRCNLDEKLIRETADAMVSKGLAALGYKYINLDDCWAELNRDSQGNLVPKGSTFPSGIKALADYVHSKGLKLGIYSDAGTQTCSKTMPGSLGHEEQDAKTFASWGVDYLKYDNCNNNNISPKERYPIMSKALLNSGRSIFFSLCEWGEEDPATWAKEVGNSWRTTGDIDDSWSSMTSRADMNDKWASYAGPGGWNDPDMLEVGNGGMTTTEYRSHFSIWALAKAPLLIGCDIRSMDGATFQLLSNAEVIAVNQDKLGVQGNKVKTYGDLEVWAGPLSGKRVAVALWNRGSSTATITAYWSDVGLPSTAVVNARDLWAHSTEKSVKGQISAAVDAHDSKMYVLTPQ

SMILES	inhibition [%]
Cc1ccc([C@@]2(CO)NC[C@H](O)[C@H]2O)cc1	0
CCCCCCCCC[C@]1(CO)NC[C@@H](O)[C@@H]1O	2.5
CCCC[C@]1(CO)NC[C@@H](O)[C@@H]1O	4.6

Test system: Aspergillus niger
Test: Inhibition of Aspergillus niger amyloglucosidase assessed as release of p-nitrophenol at 1000 uM using p-nitrophenyl glycoside as substrate by spectrometric assay relative to control

SMILES	inhibition [%]
Cc1ccc([C@@]2(CO)NC[C@H](O)[C@H]2O)cc1	8.3
CCCCCCCCC[C@]1(CO)NC[C@@H](O)[C@@H]1O	3.9
CCCC[C@]1(CO)NC[C@@H](O)[C@@H]1O	2

Target: T3, Lysosomal alpha-glucosidase
Test: Inhibition of human lysosomal alpha glucosidase assessed as release of p-nitrophenol using p-nitrophenyl glycoside as substrate by spectrometric assay

SMILES	IC50 [µM]
CCCCCCCCC[C@]1(CO)NC[C@@H](O)[C@@H]1O	130
CCCC[C@]1(CO)NC[C@@H](O)[C@@H]1O	79

Test system: Saccharomyces cerevisiae
Test: Inhibition of yeast alpha-glucosidase assessed as release of p-nitrophenol at 1000 uM using p-nitrophenyl glycoside as substrate by spectrometric assay relative to control

SMILES	inhibition [%]
CCCC[C@]1(CO)NC[C@@H](O)[C@@H]1O	32.7

Test system: Helix pomatia
Test: Inhibition of snail beta-mannosidase assessed as release of p-nitrophenol at 1000 uM using p-nitrophenyl glycoside as substrate by spectrometric assay relative control

SMILES	inhibition [%]
Cc1ccc([C@@]2(CO)NC[C@H](O)[C@H]2O)cc1	0
CCCCCCCCC[C@]1(CO)NC[C@@H](O)[C@@H]1O	0
CCCC[C@]1(CO)NC[C@@H](O)[C@@H]1O	3.6

Organism: Bos taurus
Test: Inhibition of bovine liver beta-glucronidase assessed as release of p-nitrophenol at 1000 uM using p-nitrophenyl glycoside as substrate by spectrometric assay relative to control

SMILES	inhibition [%]
Cc1ccc([C@@]2(CO)NC[C@H](O)[C@H]2O)cc1	8.7
CCCCCCCCC[C@]1(CO)NC[C@@H](O)[C@@H]1O	4.6
CCCC[C@]1(CO)NC[C@@H](O)[C@@H]1O	7.2

Target: not listed separately
Test: Inhibition of yeast alpha-glucosidase assessed as release of p-nitrophenol using p-nitrophenyl glycoside as substrate by spectrometric assay
Parameters: species or system Saccharomyces cerevisiae

SMILES	IC50 [µM]
Cc1ccc([C@@]2(CO)NC[C@H](O)[C@H]2O)cc1	57
CCCCCCCCC[C@]1(CO)NC[C@@H](O)[C@@H]1O	116

Organism: Bos taurus
Test: Inhibition of bovine liver beta-glucosidase assessed as release of p-nitrophenol at 1000 uM using p-nitrophenyl glycoside as substrate by spectrometric assay relative to control

SMILES	inhibition [%]
Cc1ccc([C@@]2(CO)NC[C@H](O)[C@H]2O)cc1	16.7
CCCCCCCCC[C@]1(CO)NC[C@@H](O)[C@@H]1O	49.2
CCCC[C@]1(CO)NC[C@@H](O)[C@@H]1O	34.3

Test system: Prunus dulcis
Test: Inhibition of almond beta-glucosidase assessed as release of p-nitrophenol at 1000 uM using p-nitrophenyl glycoside as substrate by spectrometric assay relative to control

SMILES	inhibition [%]
Cc1ccc([C@@]2(CO)NC[C@H](O)[C@H]2O)cc1	7.8
CCCCCCCCC[C@]1(CO)NC[C@@H](O)[C@@H]1O	6.8
CCCC[C@]1(CO)NC[C@@H](O)[C@@H]1O	8
